Measured values published in patent US10975084B2, “KDM5 inhibitors” (Merck Sharp & Dohme Corp., priority 2016, dated 2021).
pIC50: −log10 of the molar value.

Target: KDM5B (Homo sapiens (Human), UniProt Q9UGL1)
Test: KDM5B TR-FRET Enzyme Activity Assay
Format: biochemical
Details: LANCE TR-FRET; 5 nM full-length recombinant KDM5B; ten point titration 100000 nM to 5.08 nM
Description: KDM5B TR-FRET Enzyme Activity Assay
KDM5B enzymatic activity was determined with the LANCE (Lanthanide Chelate Excite) TR-FRET (Time-resolved fluorescence resonance energy transfer) assay. […] To each well of a white Greiner 1536 Lumitrac 1536 well-plate, 50 nL of compound (100 fold dilution in final assay volume of 5 μL) was dispensed, followed by the addition of 4 μL of 1× assay buffer (50 mM Hepes 7.3, 0.5 mM TCEP, 0.005% Brij-35, 0.02% BSA, 50 μM Na-L-Ascorbate and 2 μM AmFe(II)Sulfate) containing 5 nM of Full-length KDM5B enzyme (recombinant protein from baculovirus-transfected Sf21 cells: full-length KDM5B; MW=176.825 kDa). Following a 30 minutes compound and enzyme incubation in a humidified chamber, each reaction was initiated by the addition of 1 μL 1× assay buffer containing […] biotinylated H3K4Me3 peptide, and 500 nM α-ketoglutarate. The final reaction in each well of 5 μL consists of 5 nM KDM5B, 500 nM biotinylated-peptide, and 500 nM α-ketoglutarate. De-methylation reactions were allowed to proceed for 60 minutes. Reactions were immediately quenched by the addition of 5 uL of 2× Lance Detection Buffer (PerkinElmer) with 0.5 mM EDTA and 2 nM of Eu-anti-H3K4Me1-2 antibody, and 30 nM of Streptavidin-conjugated Dylight 650 detection reagents. After 60 minutes incubation with detection reagents, reaction plates were read on a PerkinElmer EnVision plate reader using standard TR-FRET protocol. Briefly, excitation of donor molecules (Eu-chelate-anti-H3K4Me1-2-antibody) with a laser light source at 337 nm produces energy that can be transferred to Dylight-650 acceptor molecules if this donor:acceptor pair is within close proximity. Fluorescence intensity at both 665 nm (acceptor) and 615 nm (donor) are measured and a TR-FRET ratio calculated for each well (acceptor intensity/donor intensity). IC50 values were determined by 4 parameter robust fit of TR-FRET ratio values vs. (Log 10) compound concentrations.

KDM5B, sequence (Q9UGL1 whole entry): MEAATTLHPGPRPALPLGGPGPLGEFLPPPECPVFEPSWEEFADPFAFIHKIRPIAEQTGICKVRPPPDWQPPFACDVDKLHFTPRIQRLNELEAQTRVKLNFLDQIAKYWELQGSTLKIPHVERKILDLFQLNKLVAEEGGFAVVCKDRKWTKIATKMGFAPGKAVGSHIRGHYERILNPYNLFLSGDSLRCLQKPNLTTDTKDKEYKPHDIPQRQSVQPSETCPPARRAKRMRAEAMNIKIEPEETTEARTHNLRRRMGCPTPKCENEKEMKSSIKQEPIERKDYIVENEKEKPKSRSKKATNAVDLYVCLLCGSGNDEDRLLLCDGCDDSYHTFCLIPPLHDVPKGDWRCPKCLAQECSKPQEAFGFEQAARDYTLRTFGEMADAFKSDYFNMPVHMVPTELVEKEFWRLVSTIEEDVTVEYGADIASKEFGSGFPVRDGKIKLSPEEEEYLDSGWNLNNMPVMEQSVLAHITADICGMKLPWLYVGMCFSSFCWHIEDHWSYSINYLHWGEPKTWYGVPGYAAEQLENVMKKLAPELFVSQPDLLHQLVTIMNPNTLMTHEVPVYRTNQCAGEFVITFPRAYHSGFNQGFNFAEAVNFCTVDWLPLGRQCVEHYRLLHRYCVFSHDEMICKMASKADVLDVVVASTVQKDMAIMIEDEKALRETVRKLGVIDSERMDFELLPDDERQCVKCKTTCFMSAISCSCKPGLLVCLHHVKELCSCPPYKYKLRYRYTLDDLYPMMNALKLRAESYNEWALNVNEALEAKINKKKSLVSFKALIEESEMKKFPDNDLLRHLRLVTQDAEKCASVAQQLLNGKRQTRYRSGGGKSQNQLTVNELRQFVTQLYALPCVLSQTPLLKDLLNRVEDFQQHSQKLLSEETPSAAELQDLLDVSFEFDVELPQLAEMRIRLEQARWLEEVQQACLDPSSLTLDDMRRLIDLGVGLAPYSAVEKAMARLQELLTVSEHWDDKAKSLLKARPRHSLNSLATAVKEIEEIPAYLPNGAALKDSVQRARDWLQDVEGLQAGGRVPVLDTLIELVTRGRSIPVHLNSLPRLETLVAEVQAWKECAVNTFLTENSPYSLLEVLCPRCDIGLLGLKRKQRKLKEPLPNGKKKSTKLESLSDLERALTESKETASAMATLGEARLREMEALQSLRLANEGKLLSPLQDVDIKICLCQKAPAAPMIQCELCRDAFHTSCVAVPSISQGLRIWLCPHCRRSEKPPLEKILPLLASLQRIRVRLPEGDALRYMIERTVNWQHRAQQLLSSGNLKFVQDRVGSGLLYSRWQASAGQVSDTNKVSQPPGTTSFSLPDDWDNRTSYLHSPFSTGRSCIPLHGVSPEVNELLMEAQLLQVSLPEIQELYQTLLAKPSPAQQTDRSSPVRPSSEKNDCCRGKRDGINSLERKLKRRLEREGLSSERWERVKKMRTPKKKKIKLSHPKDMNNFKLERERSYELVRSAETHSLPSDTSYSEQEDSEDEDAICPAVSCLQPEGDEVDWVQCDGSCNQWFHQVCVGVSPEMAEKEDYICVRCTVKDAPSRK

CC(C)c1c(-c2ccc(N3CCCCC3)cc2)[nH]c2ncnn2c1=O [Example 11-41, 6-(1-methylethyl)-5-(4-piperidin-1-ylphenyl)[1,2,4]triazolo[1,5-a]pyrimidin-7(4H)-one]
pIC50: 7.93

CC(C)c1c(-c2cccc(N3CCCCC3)c2)[nH]c2ncnn2c1=O [Example 11-42, 6-(1-methylethyl)-5-(3-piperidin-1-ylphenyl)[1,2,4]triazolo[1,5-a]pyrimidin-7(4H)-one]
pIC50: 7.13

CC(C)c1c(-c2coc(-c3ccc(F)cc3)n2)[nH]c2ncnn2c1=O [Example 11-43, 5-[2-(4-fluorophenyl)-1,3-oxazol-4-yl]-6-(1-methylethyl)[1,2,4]triazolo[1,5-a]pyrimidin-7(4H)-one]
pIC50: 7.62

CC(C)c1c(-c2cccc(N3CCOCC3)c2)[nH]c2ncnn2c1=O [Example 11-44, 6-(1-methylethyl)-5-(3-morpholin-4-ylphenyl)[1,2,4]triazolo[1,5-a]pyrimidin-7(4H)-one]
pIC50: 7.33

CCOC(=O)Cc1ccc(-c2[nH]c3ncnn3c(=O)c2C(C)C)cc1 [Example 11-45, ethyl {4-[6-(1-methylethyl)-7-oxo-4,7-dihydro[1,2,4]triazolo[1,5-a]pyrimidin-5-yl]phenyl}acetate]
pIC50: 7.76

CC(C)c1c(-c2cccc(Oc3ccccc3)c2)[nH]c2ncnn2c1=O [Example 11-46, 6-(1-methylethyl)-5-(3-phenoxyphenyl)[1,2,4]triazolo[1,5-a]pyrimidin-7(4H)-one]
pIC50: 6.52

CC(C)c1c(-c2cnn(CCS(C)(=O)=O)c2)[nH]c2ncnn2c1=O [Example 11-47, 6-(1-methylethyl)-5-{1-[2-(methylsulfonyl)ethyl]-1H-pyrazol-4-yl}[1,2,4]triazolo[1,5-a]pyrimidin-7(4H)-one]
pIC50: 8.16

CC(C)c1c(-c2ccc(CN3CCCCC3)cc2)[nH]c2ncnn2c1=O [Example 11-48, 6-(1-methylethyl)-5-[4-(piperidin-1-ylmethyl)phenyl][1,2,4]triazolo[1,5-a]pyrimidin-7(4H)-one]
pIC50: 7.78

CC(C)c1c(-c2cccc(CN3CCCCC3)c2)[nH]c2ncnn2c1=O [Example 11-49, 6-(1-methylethyl)-5-[3-(piperidin-1-ylmethyl)phenyl][1,2,4]triazolo[1,5-a]pyrimidin-7(4H)-one]
pIC50: 7.48

CC(C)c1c(-c2ccc(C(O)C(F)(F)F)cc2)[nH]c2ncnn2c1=O (stereo not drawn) [Example 11-50, 6-(1-methylethyl)-5-[4-(2,2,2-trifluoro-1-hydroxyethyl)-phenyl][1,2,4]triazolo[1,5-a]pyrimidin-7(4H)-one]
pIC50: 7.70

CC(C)c1c(-c2cnn(-c3cccc(Cl)c3)c2)[nH]c2ncnn2c1=O [Example 11-51, 5-[1-(3-chlorophenyl)-1H-pyrazol-4-yl]-6-(1-methylethyl)[1,2,4]triazolo[1,5-a]pyrimidin-7(4H)-one]
pIC50: 8.01

CC(C)c1c(-c2cnn(CCN3CCOCC3)c2)[nH]c2ncnn2c1=O [Example 11-52, 6-(1-methylethyl)-5-[1-(2-morpholin-4-ylethyl)-1H-pyrazol-4-yl][1,2,4]triazolo[1,5-a]pyrimidin-7(4H)-one]
pIC50: 8.16

CC(C)c1c(-c2cnn3c2CCCC3)[nH]c2ncnn2c1=O [Example 11-53, 6-(1-methylethyl)-5-(4,5,6,7-tetrahydropyrazolo[1,5-a]pyridin-3-yl)[1,2,4]triazolo[1,5-a]pyrimidin-7(4H)-one]
pIC50: 7.12

CC(C)c1c(-c2cccc(C(O)C(F)(F)F)c2)[nH]c2ncnn2c1=O (stereo not drawn) [Example 11-54, 6-(1-methylethyl)-5-[3-(2,2,2-trifluoro-1-hydroxyethyl)phenyl][1,2,4]triazolo[1,5-a]pyrimidin-7(4H)-one]
pIC50: 7.50

CC(C)c1c(/C=C/c2ccccc2)[nH]c2ncnn2c1=O [Example 11-55, 6-(1-methylethyl)-5-[(E)-2-phenylethenyl][1,2,4]triazolo[1,5-a]pyrimidin-7(4H)-one]
pIC50: 8.02

CC(C)c1c(C2=CCC(C#N)CC2)[nH]c2ncnn2c1=O (stereo not drawn) [Example 11-56]
pIC50: 6.96

COc1cccc(-c2[nH]c3ncnn3c(=O)c2C(C)C)c1 [Example 11-57, 5-(3-methoxyphenyl)-6-(1-methylethyl) [1,2,4]triazolo[1,5-a]pyrimidin-7(4H)-one]
pIC50: 7.26

COc1ccc(-c2[nH]c3ncnn3c(=O)c2C(C)C)cc1 [Example 11-58, 5-(4-methoxyphenyl)-6-(1-methylethyl) [1,2,4]triazolo[1,5-a]pyrimidin-7(4H)-one]
pIC50: 7.43

CC(C)c1c(-c2cccc(CO)c2)[nH]c2ncnn2c1=O [Example 11-59, 5-[3-(hydroxymethyl)phenyl]-6-(1-methylethyl)[1,2,4]triazolo[1,5-a]pyrimidin-7(4H)-one]
pIC50: 7.58

CC(C)c1c(-c2ccc(CO)cc2)[nH]c2ncnn2c1=O [Example 11-60, 5-[4-(hydroxymethyl)phenyl]-6-(1-methylethyl)[1,2,4]triazolo[1,5-a]pyrimidin-7(4H)-one]
pIC50: 7.87

Cc1nn(C)c(C)c1-c1[nH]c2ncnn2c(=O)c1C(C)C [Example 11-61, 6-(1-methylethyl)-5-(1,3,5-trimethyl-1H-pyrazol-4-yl)[1,2,4]triazolo[1,5-a]pyrimidin-7(4H)-one]
pIC50: 5.66

CC(C)c1c(C2=CCC(C)(C)CC2)[nH]c2ncnn2c1=O [Example 11-62, 5-(4,4-dimethylcyclohex-1-en-1-yl)-6-(1-methylethyl)[1,2,4]triazolo[1,5-a]pyrimidin-7(4H)-one]
pIC50: 5.99

CC(C)c1c(-c2ccc(Cl)cc2)[nH]c2ncnn2c1=O [Example 11-63, 5-(4-chlorophenyl)-6-(1-methylethyl)[1,2,4]triazolo[1,5-a]pyrimidin-7(4H)-one]
pIC50: 7.15

CC(C)c1c(-c2cccc(Cl)c2)[nH]c2ncnn2c1=O [Example 11-64, 5-(3-chlorophenyl)-6-(1-methylethyl)[1,2,4]triazolo[1,5-a]pyrimidin-7(4H)-one]
pIC50: 7.04

CC(C)c1c(-c2ccccc2Cl)[nH]c2ncnn2c1=O [Example 11-65, 5-(2-chlorophenyl)-6-(1-methylethyl)[1,2,4]triazolo[1,5-a]pyrimidin-7(4H)-one]
pIC50: 5.47

CC(C)c1c(-c2cccc(CC#N)c2)[nH]c2ncnn2c1=O [Example 11-66, {3-[6-(1-methylethyl)-7-oxo-4,7-dihydro[1,2,4]triazolo[1,5-a]pyrimidin-5-yl]phenyl}acetonitrile]
pIC50: 8.05

CC(C)c1c(-c2ccc(CC#N)cc2)[nH]c2ncnn2c1=O [Example 11-67, {4-[6-(1-methylethyl)-7-oxo-4,7-dihydro[1,2,4]triazolo[1,5-a]pyrimidin-5-yl]phenyl}acetonitrile]
pIC50: 7.74

CC(C)c1c(-c2cnc3[nH]ccc3c2)[nH]c2ncnn2c1=O [Example 11-68, 6-(1-methylethyl)-5-(1H-pyrrolo[2,3-b]pyridin-5-yl)[1,2,4]triazolo[1,5-a]pyrimidin-7(4H)-one]
pIC50: 7.70

CC(C)c1c(-c2ccc3nccn3c2)[nH]c2ncnn2c1=O [Example 11-69, 5-imidazo[1,2-a]pyridin-6-yl-6-(1-methylethyl)[1,2,4]triazolo[1,5-a]pyrimidin-7(4H)-one]
pIC50: 7.59

CC(C)c1c(-c2ccc3nc[nH]c3c2)[nH]c2ncnn2c1=O [Example 11-70, 5-(1H-benzimidazol-6-yl)-6-(1-methylethyl)[1,2,4]triazolo[1,5-a]pyrimidin-7(4H)-one]
pIC50: 7.87

CC(C)c1c(-c2cccc3[nH]ncc23)[nH]c2ncnn2c1=O [Example 11-71, 5-(1H-indazol-4-yl)-6-(1-methylethyl)[1,2,4]triazolo[1,5-a]pyrimidin-7(4H)-one]
pIC50: 6.68

CC(C)c1c(-c2cnn3ncccc23)[nH]c2ncnn2c1=O [Example 11-72, 6-(1-methylethyl)-5-pyrazolo[1,5-b]pyridazin-3-yl[1,2,4]triazolo[1,5-a]pyrimidin-7(4H)-one]
pIC50: 7.70

CC(C)c1c(-c2ccc3cccnc3c2)[nH]c2ncnn2c1=O [Example 11-73, 6-(1-methylethyl)-5-quinolin-7-yl[1,2,4]triazolo[1,5-a]pyrimidin-7(4H)-one]
pIC50: 7.57

CC(C)c1c(-c2ccc3ncccc3c2)[nH]c2ncnn2c1=O [Example 11-74, 6-(1-methylethyl)-5-quinolin-6-yl[1,2,4]triazolo[1,5-a]pyrimidin-7(4H)-one]
pIC50: 7.83

CC(C)c1c(-c2ccnc3ccccc23)[nH]c2ncnn2c1=O [Example 11-75, 6-(1-methylethyl)-5-quinolin-4-yl[1,2,4]triazolo[1,5-a]pyrimidin-7(4H)-one]
pIC50: 6.04

CC(C)c1c(-c2cnc3ccccc3c2)[nH]c2ncnn2c1=O [Example 11-76, 6-(1-methylethyl)-5-quinolin-3-yl[1,2,4]triazolo[1,5-a]pyrimidin-7(4H)-one]
pIC50: 7.62
